Experiment [1] concerns monocytes and macrophages. The settings on record: background art, non-patent documents 2, 3; cited from earlier work.
For experiment [2], the system named is Human bone marrow-derived mesenchymal stem cell line (UE7T-13). As to the kind of experiment: Mesenchymal stem cell mobilization effect: UE7T-13 cell migration ratio in Transwell. Format: cell-based. The following applies: 4 hr. How it is done:
Human bone marrow-derived mesenchymal stem cell line (UE7T-13) (manufactured by National Institute of Biomedical Innovation JCRB Cell Bank) was previously cultured in serum-free DMEM (manufactured by SIGMA ALDRICH) for 24 hr, and 0.25% trypsin/1 mM EDTA solution (manufactured by SIGMA ALDRICH) was added to give a dispersion. 10% Serum-containing DMEM (Powered by 10 medium; manufactured by GlycoTechnica Ltd.) was added, the cell suspension was centrifuged, the supernatant was discarded, 0.1% bovine serum albumin (fatty acid-free, manufactured by SIGMA ALDRICH)-containing DMEM (manufactured by SIGMA ALDRICH) was added to give a dispersion. It was centrifuged again, the supernatant was discarded to give cell pellets. 0.1% Bovine serum albumin-containing DMEM was added to adjust the cell density to 4×10^5 cells/mi. The cell suspension (100 μl/well) was added to Transwell (manufactured by Corning Incorporated, φ6.5 mm, pore size φ8.0 μm). The cells were incubated at 37° C., 5% CO2 for 30 min, and a measurement solution (Ret-LysoPC of Example 1-2 dissolved in 0.1% bovine serum albumin-containing DMEM to 10 nM, or 0.1% bovine serum albumin-containing DMEM alone) was placed in the lower part of the multiple well plate (600 μl/well). After incubation at 37° C., 5% CO2 for 4 hr, the supernatant in the insert was removed. The cells on the upper membrane side were removed, the cells on the lower membrane side were immobilized with 4% para-formaldehyde solution, and stained with crystalviolet solution. They were washed with water, dried, and the number of cells per one field was measured by microscopic observation. The cell migration ratio was defined as follows. cell migration ratio=(number of cell per one membrane field when each measurement solution was used)/(number of cells per one membrane field of control)
The control refers to 0.1% bovine serum albumin-containing DMEM with no addition.
Human bone marrow-derived mesenchymal stem cell line (UE7T-13) (manufactured by National Institute of Biomedical Innovation JCRB Cell Bank) was previously cultured in serum-free DMEM (manufactured by SIGMA ALDRICH) for 24 hr, and 0.25% trypsin/1 mM EDTA solution (manufactured by SIGMA ALDRICH) was added to give a dispersion. 10% Serum-containing DMEM (Powered by 10 medium; manufactured by GlycoTechnica Ltd.) was added, the cell suspension was centrifuged, the supernatant was discarded, 0.1% bovine serum albumin (fatty acid-free, manufactured by SIGMA ALDRICH)-containing DMEM (manufactured by SIGMA ALDRICH) was added to give a dispersion. It was centrifuged again, the supernatant was discarded to give cell pellets. […] They were washed with water, dried, and the number of cells per one field was measured by microscopic observation. […]

For experiment [3], the system named is human acute monocytic leukaemia cell line (THP-1). As to the kind of experiment: Monocyte mobilization effect: THP-1 cell migration rate in Transwell. Format: cell-based. The settings on record: 3 hr; for cell migration rate (monocyte mobilization effect) compared to the control: 10 nM, FIG. 1, Ret-LysoPC of Example 1-2, Ret-PC of Comparative Example 1. How it is done: A cell suspension of human acute monocytic leukaemia cell line (hereinafter to be referred to as “THP-1”) (manufactured by ATCC) was centrifuged, the supernatant was discarded, 0.1% bovine serum albumin (fatty acid-free, manufactured by SIGMA ALDRICH)-containing RPMI-1640 (manufactured by Life Technologies) was added to give a dispersion. It was centrifuged again, the supernatant was discarded to give cell pellets. 0.1% Bovine serum albumin-containing RPMI-1640 was added to adjust the cell density to 1×10^6 cells/ml. The cell suspension (100 μl/well) was added to Transwell (manufactured by Corning Incorporated, φ6.5 mm, pore size φ8.0 μm). The cells were incubated at 37° C., 5% CO2 for 30 min, and a measurement solution (all-trans retinoic acid (manufactured by Tokyo Chemical Industry Co., Ltd.) (hereinafter to be referred to as “RA”), Ret-PC of Comparative Example 1 or Ret-LysoPC of Example 1-2 dissolved in 0.1% bovine serum albumin-containing RPMI-1640 to 10 nM, and 0.1% bovine serum albumin-containing RPMI-1640 alone) was placed in the lower part of the multiple well plate (600 μl/well). After incubation at 37° C., 5% CO2 for 3 hr, the cell suspension in the multiple well plate was collected, cell density was measured by a hemacytometer and the cell migration rate was determined. The cell migration rate was defined as follows. cell migration rate (%)=(number of cells in multiple well plate)/(number of cells added to Transwell)
A cell suspension of THP-1 was centrifuged, the supernatant was discarded, 0.1% bovine serum-containing RPMI-1640 was added to give a dispersion. It was centrifuged again, the supernatant was discarded to give cell pellets. 0.1% Bovine serum albumin-containing RPMI-1640 was added to adjust the cell density to 1×10^6 cells/ml. The cell suspension (100 μl/well) was added to Transwell (manufactured by Corning Incorporated, φ6.5 mm, pore size φ8.0 μm). The cells were incubated at 37° C., 5% CO2 for 30 min, and a measurement solution (Ret-LysoPC of Examples 1-1 and 1-2 dissolved in 0.1% bovine serum albumin-containing RPMI-1640 to 10 nM, and 0.1% bovine serum albumin-containing RPMI-1640 alone) was placed in the lower part of the multiple well plate (600 μl/well). After incubation at 37° C., 5% CO2 for 3 hr, the cell suspension in the multiple well plate was collected, cell density was measured by a hemacytometer and the cell migration rate was determined.
Using human acute monocytic leukaemia cell line (THP-1) (manufactured by ATCC), a monocyte migration effect of each sample was evaluated. A cell suspension of THP-1 was centrifuged, the supernatant was discarded, 0.1% bovine serum-containing RPMI-1640 was added to give a dispersion. It was centrifuged again, the supernatant was discarded to give cell pellets. 0.1% Bovine serum albumin-containing RPMI-1640 was added to adjust the cell density to 1×10^6 cells/ml. The cell suspension (100 μl/well) was added to Transwell (manufactured by Corning Incorporated, φ6.5 mm, pore size φ8.0 μm). The cells were incubated at 37° C., 5% CO2 for 30 min, and a measurement solution (C18:0-LysoPC (COATSOME MC-80H; manufactured by NOF CORPORATION), Ret-LysoPC of Example 2 or S1P (manufactured by Toronto Research Chemicals) dissolved in 0.1% bovine serum albumin-containing RPMI-1640, and 0.1% bovine serum albumin-containing RPMI-1640 alone) was placed in the lower part of the multiple well plate ([…]). After incubation at 37° C., 5% CO2 for 3 hr, the cell suspension in the multiple well plate was collected, cell density was measured by a hemacytometer and the cell migration rate was determined.

Where [4] appears, read: 100 nM, FIG. 6, FIG. 7, Ret-LysoPC of Example 2.

Bounds are passed on as bounds.

Turning to `CCCCCCCCCCCCC/C=C/[C@@H](O)[C@@H](N)COP(=O)(O)O` [Example S1P, sphingosine-1-phosphoric acid], the “concentration at which mobilization of monocytes and macrophages is suppressed (acting on receptor 2)” value in experiment [1] is given as at least 100 nM. The “effective concentration range for mobilization of monocytes and macrophages” value in experiment [1] was “around 10 nM”. Further, the “mesenchymal stem cell mobilization effect (cell migration ratio)” value in experiment [2] (10 nM, FIG. 8) is listed as “did not show a significant (p<0.05) mesenchymal stem cell mobilization effect”; in experiment [2] (100 nM, FIG. 8), “did not show a significant (p<0.05) mesenchymal stem cell mobilization effect”. In addition, the “monocyte mobilization effect (cell migration rate)” value is on record as “did not show a significant (p<0.05) monocyte mobilization effect” in experiment [3] (1 nM, FIG. 7) and “did not show a significant (p<0.05) monocyte mobilization effect” in experiment [3] (setting [4]).
As to `CC1=C(/C=C/C(C)=C/C=C/C(C)=C/C(=O)O)C(C)(C)CCC1` [RA, all-trans retinoic acid], the “cell migration rate (monocyte mobilization effect) compared to the control” value in experiment [3] was “did not show cell migration”.
Still for that read-out and setting: the result for `CC1=C(/C=C/C(C)=C/C=C/C(C)=C/C(=O)OCC(COP(=O)([O-])OCC[N+](C)(C)C)OC(=O)/C=C(C)/C=C/C=C(C)/C=C/C2=C(C)CCCC2(C)C)C(C)(C)CCC1` (stereo not drawn) [Ret-PC, diretinoyl phosphocholine] reads “did not show cell migration”.
Turning to `CCCCCCCCCCCCCCCCCC(=O)OC[C@@H](O)COP(=O)([O-])OCC[N+](C)(C)C` [C18:0-LysoPC, 1-stearoyl-lysophosphocholine], in experiment [1], the “concentration at which a monocyte/macrophage mobilizing effect is exhibited” value is at least 10 µM. In addition, in experiment [3] (setting [4]), the “monocyte mobilization effect (cell migration rate)” value is on record as “absent”.
As for `CC1=C(/C=C/C(C)=C/C=C/C(C)=C/C(=O)OCC(O)COP(=O)([O-])OCC[N+](C)(C)C)C(C)(C)CCC1` (stereo not drawn) [Ret-LysoPC, 1-retinoyl-sn-glycero-3-phosphocholine], the “cell migration ratio (mesenchymal stem cell mobilization effect) compared to the control” value in experiment [2] (10 nM, FIG. 3, Ret-LysoPC of Example 1-2) is listed as “significant cell migration”. Also, the “mesenchymal stem cell mobilization effect (cell migration ratio)” value in experiment [2] (any of 1-100 nM, FIG. 8, Ret-LysoPC of Example 1-2) was “showed a significant mesenchymal stem cell mobilization effect”. Further, the “cell migration rate (monocyte mobilization effect) compared to the control” value in experiment [3] is “significant (P<0.05) cell migration”. In addition, the “monocyte mobilization effect (cell migration rate)” value in experiment [3] (setting [4]) is on record as “present”; in experiment [3] (any of 1-100 nM, FIG. 7, Ret-LysoPC of Example 2), “showed a significant monocyte mobilization effect”.

The record behind these values is US10092582B2, “Cell mobilization agent containing lysophospholipid with retinoic acid introduced” (NOF CORPORATION, priority 2014, dated 2018).
